Laboratory results: patent US20040040097A1, “Coloring composition for keratin fibres comprising a system limiting the transcutaneous passage of an oxidation dye” (L'OREAL, priority 2002, published 2004)

System: rebuilt skin (for example Epiderm, Episkin or Skinethic)
Assay: Penetration rate of 5,6-dihydroxyindole through rebuilt skin in static diffusion cells, VIS spectrophotometry of oxidation products
Type: in vitro ADME
Conditions: 5 mM final concentration, 16 hour coating at an infinite dose
Protocol: The 5,6-dihydroxyindole mixture with the system limiting the transcutaneous passage has been prepared fresh by adding an system equivalent volume (=1 mM MnCl2 in 1 M NaHCO3; pH=10) to an aqueous solution of 10 mM 5,6-dihydroxyindole. Then, it has been coated on rebuilt skin (for example Epiderm® from Mattek, Inc., Episkin® from Episkin SNC or Skinethic® from Skinethic Laboratories) placed in diffusion cells in a static diffusion mode at a dose of 250 mg·cm^2 for 16 hours. The analysis of the penetration rates of 5,6-dihydroxyindole through the skin has been conducted through VIS spectrophotometry through the oxidation products thereof. The 5,6-dihydroxyindole range has been prepared as follows. A plurality of dilutions from 0 to 0.5 mM 5,6-dihydroxindole in receiving liquid has been left for 16 hours at 32° C. for forming oxidation products in the form of a pigment. Such pigments absorb visible light (VIS) (“scattering” effect) depending on their concentration, which is directly related to the initial 5,6-dihydroxyindole concentration. Thus, the 5,6-dihydroxyindol range has been obtained through VIS absorption of such pigments formed after 5,6-dihydroxyindole oxydation. A 1:1 mixture between 10 mM 5,6-dihydroxyindole and distilled water has been used as a control. […]

Oc1cc2cc[nH]c2cc1O [5,6-dihydroxyindole]
penetration rate of the 5,6-dihydroxyindole (with no system (control mixture, 1:1 with distilled water)): approximately 3 % of the dose coated
penetration rate of the 5,6-dihydroxyindole (with the system (1 mM MnCl2 in 1 M NaHCO3, pH 10, equivalent volume)): lower than 0.5%
